Active and inactive are the calls of the source.
Assays:
[1] = Luminescence Cell-Based Dose Confirmation HTS to Identify Inhibitors of Platelet Dense Granule Release. [Related pubchem assays: 1663 (Primary HTS), 1678 (Summary of Project)]; type: functional
[2] = biological target: Luciferin 4-monooxygenase (Photinus pyralis, UniProt P08659); assay: firefly luciferase enzyme inhibitors, dose response, biochemical, luminescence (AID 1891)
[3] = biological target: T1, Heat shock factor protein 1 (Mus musculus, UniProt P38532); assay: inhibition of MG132-induced HSE-luciferase signal, confirmation, cell-based, NIH3T3, luminescence, dose retest (AID 2382); type: functional;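 further: NIH3T3 fibroblasts with HSF1-driven luciferase reporter stressed by proteasome inhibitor MG132; luminescence from HSF1-driven luciferase expression after 8 hours of MG132 stress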
T1 sequence (P38532 whole entry): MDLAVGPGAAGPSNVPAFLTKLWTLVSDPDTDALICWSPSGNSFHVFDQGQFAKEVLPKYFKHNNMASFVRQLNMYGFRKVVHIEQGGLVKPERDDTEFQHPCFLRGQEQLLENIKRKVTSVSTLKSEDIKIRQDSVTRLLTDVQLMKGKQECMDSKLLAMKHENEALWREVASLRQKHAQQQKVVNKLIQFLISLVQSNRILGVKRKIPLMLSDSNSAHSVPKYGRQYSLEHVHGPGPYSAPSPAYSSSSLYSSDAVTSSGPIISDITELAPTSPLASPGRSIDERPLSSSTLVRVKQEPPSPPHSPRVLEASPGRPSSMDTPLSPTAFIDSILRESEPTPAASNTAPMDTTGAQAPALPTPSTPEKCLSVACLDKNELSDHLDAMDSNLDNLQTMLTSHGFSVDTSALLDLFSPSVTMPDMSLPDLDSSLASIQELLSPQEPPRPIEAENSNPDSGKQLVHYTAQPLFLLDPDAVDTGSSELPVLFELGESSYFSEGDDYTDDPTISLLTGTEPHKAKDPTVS

[4] = biological target: T2, Protein RecA (Mycobacterium tuberculosis, UniProt P9WHJ3); assay: Fluorescence Cell-Free Homogeneous Dose Retest to Identify Inhibitors of RecA-Intein Splicing Activity. [Related pubchem assays (depositor defined):AID2097, AID2223, AID489010, AID492950]; type: functional
T2 sequence (P9WHJ3 whole entry): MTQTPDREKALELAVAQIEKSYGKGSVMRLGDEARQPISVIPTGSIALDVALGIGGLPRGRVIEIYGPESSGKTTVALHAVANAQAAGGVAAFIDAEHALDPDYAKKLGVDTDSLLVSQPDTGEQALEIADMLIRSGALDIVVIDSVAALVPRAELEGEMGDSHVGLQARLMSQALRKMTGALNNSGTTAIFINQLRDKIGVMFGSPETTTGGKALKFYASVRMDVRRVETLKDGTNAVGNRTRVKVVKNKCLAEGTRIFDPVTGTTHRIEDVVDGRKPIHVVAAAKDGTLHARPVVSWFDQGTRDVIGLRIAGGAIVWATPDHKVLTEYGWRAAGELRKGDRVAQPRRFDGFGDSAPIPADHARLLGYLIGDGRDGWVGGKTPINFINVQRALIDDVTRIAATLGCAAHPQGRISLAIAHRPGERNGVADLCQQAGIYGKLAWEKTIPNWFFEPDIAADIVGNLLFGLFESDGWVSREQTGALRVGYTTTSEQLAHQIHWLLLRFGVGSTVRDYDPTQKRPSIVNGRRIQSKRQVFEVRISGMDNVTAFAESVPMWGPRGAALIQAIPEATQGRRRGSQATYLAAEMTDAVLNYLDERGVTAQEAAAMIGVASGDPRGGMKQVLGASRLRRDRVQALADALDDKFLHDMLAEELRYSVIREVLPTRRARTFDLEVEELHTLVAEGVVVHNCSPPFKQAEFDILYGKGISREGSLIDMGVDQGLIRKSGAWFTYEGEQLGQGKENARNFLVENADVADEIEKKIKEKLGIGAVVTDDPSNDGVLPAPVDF

[5] = inhibitors of SNCA 5'UTR-driven reporter translation, confirmation, H4 neuroglioma cells, luminescence (AID 1988); type: functional, cell-based
[6] = Luminescence Cell-Based Dose Response HTS to Identify Inhibitors of 5'UTR Stem-Loop Driven Prion Protein mRNA Translation in H4 Neuroglioblastoma Cells. [Related pubchem assays: 1827 (Project Summary), 1813 (Primary HTS)]; type: functional
[7] = biological target: T3, Replicative DNA helicase DnaB (Mycobacterium tuberculosis, UniProt P9WMR3); assay: DnaB intein splicing inhibitors, dose response, biochemical, cell-free fluorescence (AID 449749); type: functional
T3 sequence (P9WMR3 whole entry): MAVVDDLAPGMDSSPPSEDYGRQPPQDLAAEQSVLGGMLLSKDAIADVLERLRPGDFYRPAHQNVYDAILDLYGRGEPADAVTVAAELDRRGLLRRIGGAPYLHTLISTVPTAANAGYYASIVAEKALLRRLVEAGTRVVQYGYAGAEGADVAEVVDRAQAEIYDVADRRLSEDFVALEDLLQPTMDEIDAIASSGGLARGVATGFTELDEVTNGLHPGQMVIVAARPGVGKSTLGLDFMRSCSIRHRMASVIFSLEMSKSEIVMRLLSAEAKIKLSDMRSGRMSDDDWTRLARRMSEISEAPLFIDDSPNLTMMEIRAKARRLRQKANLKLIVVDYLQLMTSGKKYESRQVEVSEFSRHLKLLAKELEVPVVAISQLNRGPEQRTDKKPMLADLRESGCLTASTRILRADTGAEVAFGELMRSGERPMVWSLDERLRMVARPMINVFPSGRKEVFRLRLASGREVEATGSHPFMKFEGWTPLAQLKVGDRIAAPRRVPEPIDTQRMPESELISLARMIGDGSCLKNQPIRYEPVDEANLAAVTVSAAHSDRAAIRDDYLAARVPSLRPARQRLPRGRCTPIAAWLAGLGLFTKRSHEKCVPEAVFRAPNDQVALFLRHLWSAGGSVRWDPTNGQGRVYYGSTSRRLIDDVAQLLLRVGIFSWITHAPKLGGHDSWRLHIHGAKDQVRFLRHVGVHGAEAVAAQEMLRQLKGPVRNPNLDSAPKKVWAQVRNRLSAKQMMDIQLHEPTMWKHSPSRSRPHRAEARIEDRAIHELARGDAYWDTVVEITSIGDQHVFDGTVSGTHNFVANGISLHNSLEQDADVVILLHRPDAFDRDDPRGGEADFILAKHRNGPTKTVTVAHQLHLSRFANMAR

[8] = inhibitors of firefly luciferase expression or activity, dose response, H4 neuroglioma cells, luminescence (AID 1990); type: functional, cell-based
[9] = biological target: Cytochrome P450 2C19 (Homo sapiens, UniProt P33261); assay: Cytochrome panel assay with activity outcomes. Panel member name: p450-cyp2c19 Compounds with AC50 equal or less than 10 uM are considered active; type: functional; settings: read-out: AC50
Sequence of Cytochrome P450 2C19 (P33261 whole entry): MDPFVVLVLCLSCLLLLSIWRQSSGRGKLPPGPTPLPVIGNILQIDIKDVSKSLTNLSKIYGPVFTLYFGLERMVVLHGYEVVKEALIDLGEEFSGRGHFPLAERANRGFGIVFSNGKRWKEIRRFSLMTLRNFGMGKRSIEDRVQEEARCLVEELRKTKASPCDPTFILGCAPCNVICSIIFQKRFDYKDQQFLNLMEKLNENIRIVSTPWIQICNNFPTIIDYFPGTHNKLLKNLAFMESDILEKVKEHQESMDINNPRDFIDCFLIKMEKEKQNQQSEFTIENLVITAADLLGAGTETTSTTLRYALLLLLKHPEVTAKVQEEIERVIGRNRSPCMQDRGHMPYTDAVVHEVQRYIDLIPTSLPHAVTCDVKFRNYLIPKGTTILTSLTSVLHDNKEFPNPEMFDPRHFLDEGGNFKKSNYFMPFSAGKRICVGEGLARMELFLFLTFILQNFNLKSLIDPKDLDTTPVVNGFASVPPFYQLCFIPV

[10] = Luminescence Cell-Based Dose Response HTS to Identify Activators of Luciferase Translation or Activity in H4 […] Cells. [Related pubchem assays: 1829 (Project Summary), 1814 (Primary HTS)]; type: functional
[11] = Luminescence Cell-Based Dose Confirmation HTS to Identify Activators of 5'UTR Stem-Loop Driven Alpha-Synuclein mRNA Translation in H4 Neuroglioblastoma Cells. [Related pubchem assays: 1829 (Project Summary), 1814 (Primary HTS)]; type: functional
[12] = tested on: H4; assay: Luminescence Cell-Based Dose Response HTS to Identify Activators of 5'UTR Stem-Loop Driven Prion Protein mRNA Translation in H4 Neuroglioblastoma Cells. [Related pubchem assays: 1829 (Project Summary), 1814 (Primary HTS)]; type: functional; settings: Homo sapiens
[13] = cells; type: functional, cell-based
[14] = cells; type: functional, cell-based; remark: listed apart in the source
[15] = control 3'UTR Renilla luciferase suppression, dose response, counter-screen for Shn3 inhibitor project, cell-based, Clone20-Shn3RL, cherry-picked (AID 624133); type: functional
[16] = Shn3 3'UTR reporter inhibitors, dose response, cell-based, Clone20 osteoblasts, firefly luciferase, cherry-picked (AID 624132); type: functional;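 further: firefly luciferase luminescence from reporter carrying the Shn3 3'UTR in osteoblasts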
[17] = growth suppression of beta-catenin-knockout colon cells, dose response, cell-based, HCT116, human colon tumor (AID 1045); type: functional;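 further: HCT116 colon tumor cells with beta catenin knocked out; cells exposed to compound for 60 hours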
[18] = growth suppression of PTEN-null colon cells, dose response, cell-based, HCT116 PTEN knockout (AID 1047); type: functional;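 further: HCT116 colon tumor cells with PTEN knocked out; cells exposed to compound for 60 hours before readout; potency for loss of cell viability measured by luminescence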

Sequence of Luciferin 4-monooxygenase (P08659 whole entry): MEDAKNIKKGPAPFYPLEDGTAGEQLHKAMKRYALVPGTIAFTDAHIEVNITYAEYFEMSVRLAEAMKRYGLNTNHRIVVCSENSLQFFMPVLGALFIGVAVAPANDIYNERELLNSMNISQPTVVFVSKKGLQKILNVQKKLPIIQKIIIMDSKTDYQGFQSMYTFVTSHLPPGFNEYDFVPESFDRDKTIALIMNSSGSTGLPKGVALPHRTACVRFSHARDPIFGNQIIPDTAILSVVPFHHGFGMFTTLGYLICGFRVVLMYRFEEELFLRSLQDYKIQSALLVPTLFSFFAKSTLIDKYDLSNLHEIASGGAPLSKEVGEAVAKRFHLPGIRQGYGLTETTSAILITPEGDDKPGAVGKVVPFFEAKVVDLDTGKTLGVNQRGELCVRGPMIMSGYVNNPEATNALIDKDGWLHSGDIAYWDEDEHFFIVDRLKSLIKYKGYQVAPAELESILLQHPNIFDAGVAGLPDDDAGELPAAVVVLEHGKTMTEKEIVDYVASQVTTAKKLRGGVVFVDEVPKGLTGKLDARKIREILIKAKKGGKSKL

SMILES | EC50 [1] | EC50 [2] | EC50 [3] | further results
O=S(=O)(c1ccc(F)cc1)N(Cc1ccco1)Cc1cc2ccccc2nc1O | > 112 µM (not active) | > 112 µM (not active) |  | 
CCOC(=O)c1cnn(-c2ccccc2)c1-n1cccc1 |  |  | > 195 µM (not active) | 
COc1cc(OC)c2c(c1)OCC1CON(C)C21 (configuration not stated) |  |  | > 195 µM (not active) | 
CCOc1ccc(C2C(C(=O)NC)=C(C)Nc3nc4ccccc4n32)cc1OC (configuration not stated) | > 112 µM (not active) | > 112 µM (not active) |  | 
O=[N+]([O-])c1ccc(N2CCCC(C(F)(F)F)C2)c2ccncc12 (configuration not stated) |  |  |  | EC50 [4]: 10.8 µM (active); EC50 [5]: > 120 µM (not active); EC50 [6]: > 120 µM (not active); AC50 [7]: > 380 µM (inactive); EC50 [8]: > 120 µM (not active)
O=C(CSc1ccccc1)Nc1cccc(NC(=O)c2ccco2)c1 |  |  | > 195 µM (not active) | 
CCc1nn2c(=O)c(S(=O)(=O)Nc3cccc(F)c3)c(C)nc2s1 |  |  | > 195 µM (not active) | 
CC(C)OCCCNCC(O)c1ccccc1 (configuration not stated) | > 112 µM (not active) | > 112 µM (not active) |  | 
CCn1nnnc1SCC(=O)NC1CCCC1 | > 112 µM (not active) | > 112 µM (not active) |  | AC50 [9]: 35.5 µM (inconclusive)
CCCN(Cc1ccccc1)C(=S)NC(=O)c1ccccc1[N+](=O)[O-] |  |  | > 195 µM (not active) | 
Cn1ccnc1SCC(=O)Nc1ccc2c(c1)OC(F)(F)O2 | > 112 µM (not active) | > 112 µM (not active) |  | 
O=C(Nc1ccccn1)c1c(O)c2cccc3c2n(c1=O)CCC3 | > 112 µM (not active) | > 112 µM (not active) |  | 
Cc1ccc(-c2cnn(-c3ccccc3)c2N)cc1 | 2.57 µM (active) | 1.92 µM (active) |  | 
S=C(Nc1ccc(Nc2ccccc2)cc1)NN1CCOCC1 |  |  | > 195 µM (not active) | EC50 [10]: 56.1 µM (active); EC50 [11]: > 120 µM (not active); EC50 [12]: > 120 µM (not active)
CC(=O)N1C(=O)C2(C(C#N)=C(N)Oc3c2c(C)nn3-c2ccccc2)c2ccccc21 (configuration not stated) |  |  |  | EC50 [4]: 2.28 µM (active); AC50 [7]: 4.34 µM (active)
COC(=O)c1ccc(C(C(=O)NCc2ccccc2)N(Cc2ccco2)C(=O)c2cnccn2)cc1 (configuration not stated) |  |  |  | EC50 [13]: > 350 µM (not active); EC50 [14]: > 350 µM (not active)
O=C1CC(NC(=O)C(F)(F)F)=NN1c1ccccc1 |  |  |  | EC50 [4]: 5.51 µM (active); AC50 [7]: 6.86 µM (active)
CCOC(=O)Cc1ccc2sc(-c3ccccc3)nc2c1 | 2.68 µM (active) | 1.54 µM (active) |  | 
COc1cc(C=C(c2nc3ccccc3s2)c2nc3ccccc3s2)ccc1O |  |  |  | EC50 [4]: 5.08 µM (active); AC50 [7]: > 380 µM (inactive)
Cc1ccc(SCc2n[nH]c3c2C(c2ccco2)C(C#N)=C(N)O3)cc1 (configuration not stated) |  |  |  | EC50 [4]: 6.19 µM (active); AC50 [7]: < 0.018 µM (active)
COc1ccc(CCN2CC(C(=O)NCCc3ccc(C(F)(F)F)cc3)CCC2=O)cc1 (configuration not stated) | > 112 µM (not active) | > 112 µM (not active) |  | 
O=Cc1c(-c2ccc(Cl)cc2)oc2ccc(O)cc12 |  |  | 18 µM (active) | 
Cc1ccc(OC(=O)c2ccc([N+](=O)[O-])cc2Cl)cn1 |  |  |  | EC50 [4]: 4.92 µM (active); AC50 [7]: 11.2 µM (active)
O=S(=O)(c1ccccc1)N1CN2CCN(C2)C1 |  |  | > 195 µM (not active) | 
C[C@H]1COC(=O)[C@H](NC(=O)OCC2c3ccccc3-c3ccccc32)C/C=C\C[C@H](CC(=O)N(CCO)Cc2ccccc2)C(=O)N1 |  |  |  | AC50 [15]: 5.76 µM (active); AC50 [16]: 6.08 µM (active)
CC(C)(C)c1ccc(C(=O)NC(=S)N2CCCC2)cc1 |  |  | > 195 µM (not active) | 
CC1C/C(=N/Nc2nc3ccccc3[nH]2)CC(C)(C)C1 (configuration not stated) |  |  | > 195 µM (not active) | 
CC1=C(C)/C(=N/OC(=O)c2cccc([N+](=O)[O-])c2)C=CC1=O |  |  |  | EC50 [17]: 9.24 µM (active); EC50 [4]: 0.418 µM (active); EC50 [18]: 9.44 µM (active); AC50 [7]: > 380 µM (inactive)
Cc1ccc(/C(O)=C/C=N/c2ccccn2)cc1 | 5.11 µM (active) | 1.64 µM (active) | 4.24 µM (active) | EC50 [5]: 0.188 µM (active); EC50 [6]: 1.4 µM (active); EC50 [8]: 3.18 µM (active)
COc1cccc(/C=N/NC(=O)c2cnccn2)c1 |  |  | > 195 µM (not active) | 
